Source: patent US9695163B2, “Thiazole orexin receptor antagonists” (MERCK SHARP & DOHME CORP., priority 2013, dated 2017)

Experiments:
[1] = target: human orexin-2 receptor (hOX2R) (Homo sapiens (Human), UniProt O43614); test: FLIPR Ca2+ Flux Assay, CHO cells expressing human orexin-2 receptor; assay type: cell-based; conditions: agonist Ala-6,12 human orexin-A 70 pM
Procedure: Briefly, for intracellular calcium measurements, Chinese hamster ovary (CHO) cells expressing the orexin-1 receptor (e.g., rat or human) or the orexin-2 receptor (e.g., rat or human), are grown in Iscove's modified DMEM containing 2 mM L-glutamine, […], 1% hypoxanthine-thymidine supplement, 100 U/ml penicillin, 100 μg/ml streptomycin and 10% heat-inactivated fetal calf serum (FCS). The cells are seeded at approximately 20,000 cells per well into 384-well clear bottom sterile plates coated with poly-D-lysine. The seeded plates are incubated overnight at 37° C. and 5% CO2. Human ala-6,12 orexin-A can be used as the agonist and prepared as a 1 mM stock solution in 1% bovine serum albumin (BSA) and diluted in assay buffer (HBSS containing 20 mM HEPES, 0.1% BSA and 2.5 mM probenecid, pH7.4) for use in the assay at a final concentration of 70 pM. Test compounds are prepared as 10 mM stock solution in DMSO, then diluted in 384-well plates, first in DMSO, then in assay buffer. On the day of the assay, cells are washed 3 times with 100 μl assay buffer and then incubated for 60 minutes (37° C., 5% CO2) in 60 μl assay buffer containing 1 μM Fluo-4 AM ester, 0.02% pluronic acid, and 1% BSA. The dye loading solution is then aspirated and cells are washed 3 times with 100 μl assay buffer. 30 μl of that same buffer is left in each well. Within the Fluorescent Imaging Plate Reader (FLIPR, Molecular Devices), test compounds are added to the plate in a volume of 25 μl, incubated for 5 minutes, and then 25 μl of agonist is added. Fluorescence is measured for each well at 1 second intervals for 5 minutes, and the height of each fluorescence peak is compared to the height of the fluorescence peak induced by 70 pM of agonist ala-6,12 orexin-A with buffer in place of test compound. IC50 value for the test compound is determined to be the concentration of compound needed to inhibit 50% of the agonist response. Alternatively, compound potency can be assessed using a radioligand binding assay (described in Bergman et. al., Bioorg. Med. Chem. Lett. 2008, 18:1425-1430) in which the inhibition constant (Ki) is determined in membranes prepared from CHO cells expressing either the OX1 or OX2 receptor. The intrinsic orexin receptor antagonist activity of a compound of the present invention may be determined by these assays. […]

[2] = target: human orexin-1 receptor (hOX1R) (Homo sapiens (Human), UniProt O43613); test: FLIPR Ca2+ Flux Assay, CHO cells expressing human orexin-1 receptor; assay type: cell-based; conditions: agonist Ala-6,12 human orexin-A 70 pM
Description: The utility of the compounds in accordance with the present invention as orexin receptor OX1R and/or OX2R antagonists may be readily determined without undue experimentation by methodology well known in the art, including the “FLIPR Ca^2+ Flux Assay” (Okumura et al., Biochem. Biophys. Res. Comm. 2001, 280:976-981). Briefly, for intracellular calcium measurements, Chinese hamster ovary (CHO) cells expressing the orexin-1 receptor (e.g., rat or human) or the orexin-2 receptor (e.g., rat or human), are grown in Iscove's modified DMEM containing 2 mM L-glutamine, […], 1% hypoxanthine-thymidine supplement, 100 U/ml penicillin, 100 μg/ml streptomycin and 10% heat-inactivated fetal calf serum (FCS). The cells are seeded at approximately 20,000 cells per well into 384-well clear bottom sterile plates coated with poly-D-lysine. The seeded plates are incubated overnight at 37° C. and 5% CO2. Human ala-6,12 orexin-A can be used as the agonist and prepared as a 1 mM stock solution in 1% bovine serum albumin (BSA) and diluted in assay buffer (HBSS containing 20 mM HEPES, 0.1% BSA and 2.5 mM probenecid, pH7.4) for use in the assay at a final concentration of 70 pM. Test compounds are prepared as 10 mM stock solution in DMSO, then diluted in 384-well plates, first in DMSO, then in assay buffer. On the day of the assay, cells are washed 3 times with 100 μl assay buffer and then incubated for 60 minutes (37° C., 5% CO2) in 60 μl assay buffer containing 1 μM Fluo-4 AM ester, 0.02% pluronic acid, and 1% BSA. The dye loading solution is then aspirated and cells are washed 3 times with 100 μl assay buffer. 30 μl of that same buffer is left in each well. Within the Fluorescent Imaging Plate Reader (FLIPR, Molecular Devices), test compounds are added to the plate in a volume of 25 μl, incubated for 5 minutes, and then 25 μl of agonist is added. Fluorescence is measured for each well at 1 second intervals for 5 minutes, and the height of each fluorescence peak is compared to the height of the fluorescence peak induced by 70 pM of agonist ala-6,12 orexin-A with buffer in place of test compound. IC50 value for the test compound is determined to be the concentration of compound needed to inhibit 50% of the agonist response. Alternatively, compound potency can be assessed using a radioligand binding assay (described in Bergman et. al., Bioorg. Med. Chem. Lett. 2008, 18:1425-1430) in which the inhibition constant (Ki) is determined in membranes prepared from CHO cells expressing either the OX1 or OX2 receptor. The intrinsic orexin receptor antagonist activity of a compound of the present invention may be determined by these assays.

human orexin-1 receptor (hOX1R), sequence (O43613 whole entry): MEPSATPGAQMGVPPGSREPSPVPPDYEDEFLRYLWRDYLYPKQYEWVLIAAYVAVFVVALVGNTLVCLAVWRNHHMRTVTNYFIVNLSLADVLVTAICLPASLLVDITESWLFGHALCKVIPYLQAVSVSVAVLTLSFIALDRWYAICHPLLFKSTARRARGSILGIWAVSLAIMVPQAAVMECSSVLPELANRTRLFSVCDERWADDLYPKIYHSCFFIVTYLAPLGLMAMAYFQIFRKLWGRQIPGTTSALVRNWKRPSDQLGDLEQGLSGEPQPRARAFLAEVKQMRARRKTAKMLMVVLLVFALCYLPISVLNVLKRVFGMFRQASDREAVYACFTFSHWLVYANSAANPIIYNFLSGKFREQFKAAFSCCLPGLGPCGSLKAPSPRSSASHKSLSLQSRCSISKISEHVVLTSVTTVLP
human orexin-2 receptor (hOX2R), sequence (O43614 whole entry): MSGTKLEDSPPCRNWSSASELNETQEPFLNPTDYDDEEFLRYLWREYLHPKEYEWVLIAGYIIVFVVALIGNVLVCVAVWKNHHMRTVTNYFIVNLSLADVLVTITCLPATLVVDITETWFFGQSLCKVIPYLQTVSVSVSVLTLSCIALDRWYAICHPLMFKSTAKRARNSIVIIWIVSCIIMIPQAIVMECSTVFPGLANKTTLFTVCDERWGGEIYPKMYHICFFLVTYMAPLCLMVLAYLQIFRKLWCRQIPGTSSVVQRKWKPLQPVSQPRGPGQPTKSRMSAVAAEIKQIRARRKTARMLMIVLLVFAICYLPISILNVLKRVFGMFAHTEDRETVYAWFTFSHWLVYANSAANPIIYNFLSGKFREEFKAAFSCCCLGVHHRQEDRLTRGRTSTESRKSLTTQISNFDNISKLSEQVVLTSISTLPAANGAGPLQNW

| Compound | IC50 [1] | IC50 [2] |
| --- | --- | --- |
| Cc1sc([C@@H]2CC[C@@H](C)N(C(=O)c3cscc3-n3nccn3)C2)nc1C(C)(C)O [Example 21, (4-(2H-1,2,3-triazol-2-yl)thiophen-3-yl)((2R,5R)-5-(4-(2-hydroxypropan-2-yl)-5-methylthiazol-2-yl)-2-methylpiperidin-1-yl)methanone] | 30 nM | 2800 nM |
| Cc1sc([C@@H]2CC[C@@H](C)N(C(=O)c3ccc(F)cc3-n3nccn3)C2)nc1C(C)(C)O [Example 22, (4-fluoro-2-(2H-1,2,3-triazol-2-yl)phenyl)((2R,5R)-5-(4-(2-hydroxypropan-2-yl)-5-methylthiazol-2-yl)-2-methylpiperidin-1-yl)methanone] | 20 nM | 930 nM |
| Cc1sc([C@@H]2CC[C@@H](C)N(C(=O)c3ccccc3-c3ncccn3)C2)nc1C(C)(C)O [Example 23, ((2R,5R)-5-(4-(2-Hydroxypropan-2-yl)-5-methylthiazol-2-yl)-2-methylpiperidin-1-yl)(2-(pyrimidin-2-yl)phenyl)methanone] | 27 nM | 600 nM |
| Cc1sc([C@@H]2CC[C@@H](C)N(C(=O)c3ccccc3-n3ncnn3)C2)nc1C(C)(C)O [Example 24, (2-(2H-Tetrazol-2-yl)phenyl)((2R,5R)-5-(4-(2-hydroxypropan-2-yl)-5-methylthiazol-2-yl)-2-methylpiperidin-1-yl)methanone] | 19 nM | 2650 nM |
| Cc1sc([C@@H]2CC[C@@H](C)N(C(=O)c3ccccc3C3(C#N)CC3)C2)nc1C(C)(C)O [Example 25, 1-(2-((2R,5R)-5-(4-(2-Hydroxypropan-2-yl)-5-methylthiazol-2-yl)-2-methylpiperidine-1-carbonyl)phenyl)cyclopropanecarbonitrile] | 12 nM | 240 nM |
| Cc1sc([C@@H]2CC[C@@H](C)N(C(=O)c3ccccc3CS(C)(=O)=O)C2)nc1C(C)(C)O [Example 26, ((2R,5R)-5-(4-(2-Hydroxypropan-2-yl)-5-methylthiazol-2-yl)-2-methylpiperidin-1-yl)(2-((methylsulfonyl)methyl)phenyl)methanone] | 32 nM | > 10000 nM |
| Cc1sc([C@@H]2CC[C@@H](C)N(C(=O)c3cscc3-c3ncccn3)C2)nc1C(C)(C)O [Example 28, ((2R,5R)-5-(4-(2-Hydroxypropan-2-yl)-5-methylthiazol-2-yl)-2-methylpiperidin-1-yl)(4-(pyrimidin-2-yl)thiophen-3-yl)methanone] | 29 nM | 900 nM |
| C[C@@H]1CC[C@@H](c2csc(C(C)(C)O)n2)CN1C(=O)c1ccccc1C1(C#N)CC1 [Example 30, 1-(2-((2R,5R)-5-(2-(2-hydroxypropan-2-yl)thiazol-4-yl)-2-methylpiperidine-1-carbonyl)phenyl)cyclopropanecarbonitrile] | 13 nM | 1200 nM |
| C[C@@H]1CC[C@@H](c2csc(C(C)(C)O)n2)CN1C(=O)c1ccsc1-c1ncccn1 [Example 31, ((2R,5R)-5-(2-(2-hydroxypropan-2-yl)thiazol-4-yl)-2-methylpiperidin-1-yl)(2-(pyrimidin-2-yl)thiophen-3-yl)methanone] | 90 nM | > 10000 nM |
| C[C@@H]1CC[C@@H](c2csc(C(C)(C)O)n2)CN1C(=O)c1cscc1-c1ncccn1 [Example 32, ((2R,5R)-5-(2-(2-hydroxypropan-2-yl)thiazol-4-yl)-2-methylpiperidin-1-yl)(4-(pyrimidin-2-yl)thiophen-3-yl)methanone] | 130 nM | > 10000 nM |
| C[C@@H]1CC[C@@H](c2csc(C(C)(C)O)n2)CN1C(=O)c1ccccc1-c1ncccn1 [Example 33, ((2R,5R)-5-(2-(2-hydroxypropan-2-yl)thiazol-4-yl)-2-methylpiperidin-1-yl)(2-(pyrimidin-2-yl)phenyl)methanone] | 102 nM | > 10000 nM |
| C[C@@H]1CC[C@@H](c2csc(C(C)(C)O)n2)CN1C(=O)c1ccccc1CS(C)(=O)=O [Example 34, ((2R,5R)-5-(2-(2-hydroxypropan-2-yl)thiazol-4-yl)-2-methylpiperidin-1-yl)(2-((methylsulfonyl)methyl)phenyl)methanone] | 40 nM | > 10000 nM |
| C[C@@H]1CC[C@@H](c2csc(C(C)(C)O)n2)CN1C(=O)c1cscc1-n1nccn1 [Example 35, (4-(2H-1,2,3-triazol-2-yl)thiophen-3-yl)((2R,5R)-5-(2-(2-hydroxypropan-2-yl)thiazol-4-yl)-2-methylpiperidin-1-yl)methanone] | 14 nM | > 10000 nM |
| C[C@@H]1CC[C@@H](c2csc(C(C)(C)O)n2)CN1C(=O)c1ccccc1-n1nccn1 [Example 36, (2-(2H-1,2,3-triazol-2-yl)phenyl)((2R,5R)-5-(2-(2-hydroxypropan-2-yl)thiazol-4-yl)-2-methylpiperidin-1-yl)methanone] | 20 nM | 2300 nM |
| C[C@@H]1CC[C@@H](c2csc(C(C)(C)O)n2)CN1C(=O)c1ccsc1-n1nccn1 [Example 37, (2-(2H-1,2,3-Triazol-2-yl)thiophen-3-yl)((2R,5R)-5-(2-(2-hydroxypropan-2-yl)thiazol-4-yl)-2-methylpiperidin-1-yl)methanone] | 16 nM | 7200 nM |
| C[C@@H]1CC[C@@H](c2csc(C(C)(C)O)n2)CN1C(=O)c1ccc(F)cc1-n1nccn1 [Example 38, (4-Fluoro-2-(2H-1,2,3-triazol-2-yl)phenyl)((2R,5R)-5-(2-(2-hydroxypropan-2-yl)thiazol-4-yl)-2-methylpiperidin-1-yl)methanone] | 14 nM | 2050 nM |
| ((2R,5R)-5-(4-(2-Hydroxypropan-2-yl)-5- methylthiazol-2-yl)-2-methylpiperidin-1- yl)(2-(pyrimidin-2-yl)thiophen-3- yl)methanone [Example 27] | 87 nM | 700 nM |
